Structures are written as SMILES.

The target of the first test is T1, Tyrosinase (Agaricus bisporus, UniProt O42713).
T1 sequence (O42713 whole entry): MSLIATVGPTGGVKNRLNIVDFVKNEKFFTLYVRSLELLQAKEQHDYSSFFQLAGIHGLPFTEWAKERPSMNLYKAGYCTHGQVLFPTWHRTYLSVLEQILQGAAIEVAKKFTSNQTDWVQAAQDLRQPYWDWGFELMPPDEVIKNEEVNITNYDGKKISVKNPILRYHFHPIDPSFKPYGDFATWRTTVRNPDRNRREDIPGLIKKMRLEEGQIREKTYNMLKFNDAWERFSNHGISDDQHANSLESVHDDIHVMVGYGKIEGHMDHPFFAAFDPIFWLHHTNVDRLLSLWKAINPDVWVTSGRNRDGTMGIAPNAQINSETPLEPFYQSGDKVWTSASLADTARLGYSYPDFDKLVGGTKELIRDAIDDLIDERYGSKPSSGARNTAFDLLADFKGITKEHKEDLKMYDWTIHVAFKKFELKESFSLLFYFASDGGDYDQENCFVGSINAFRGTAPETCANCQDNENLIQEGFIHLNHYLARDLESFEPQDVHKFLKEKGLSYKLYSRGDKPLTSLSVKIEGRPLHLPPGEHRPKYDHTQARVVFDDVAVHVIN
The test is described as follows: Inhibition of mushroom tyrosinase using TBC as substrate by spectrophotometric method.
As a reminder, the IC50 is the concentration that gives 50% inhibition. As to `OC[C@H]1O[C@@H](OCCCc2ccc(O)cc2O)[C@H](O)[C@@H](O)[C@@H]1O`, the half-inhibitory concentration (IC50) stood at 3620 nM. Still for that read-out and setting: for `OC[C@H]1O[C@@H](OCCc2ccc(O)cc2O)[C@H](O)[C@@H](O)[C@@H]1O` the value was 35900 nM.

`CCCCCCc1ccc(O)cc1O` [HEXYLRESORCINOL] returned an IC50 of 610 nM. Still for that read-out and setting: for `OC[C@H]1O[C@@H](OCCCCCCc2ccc(O)cc2O)[C@H](O)[C@@H](O)[C@@H]1O` the value was 630 nM; for `OC[C@H]1O[C@@H](OCCCCc2ccc(O)cc2O)[C@H](O)[C@@H](O)[C@@H]1O`, 1360 nM; for `OC[C@H]1O[C@@H](OCCCCCCCCCCCCCCc2ccc(O)cc2O)[C@H](O)[C@@H](O)[C@@H]1O`, 390 nM. Regarding `OC[C@H]1O[C@@H](OCCCCCCCCCCc2ccc(O)cc2O)[C@H](O)[C@@H](O)[C@@H]1O`, the IC50 turned out to be 410 nM.

Another test concerns the target T2, Tyrosinase (Homo sapiens, UniProt P14679).
T2 sequence (P14679 whole entry): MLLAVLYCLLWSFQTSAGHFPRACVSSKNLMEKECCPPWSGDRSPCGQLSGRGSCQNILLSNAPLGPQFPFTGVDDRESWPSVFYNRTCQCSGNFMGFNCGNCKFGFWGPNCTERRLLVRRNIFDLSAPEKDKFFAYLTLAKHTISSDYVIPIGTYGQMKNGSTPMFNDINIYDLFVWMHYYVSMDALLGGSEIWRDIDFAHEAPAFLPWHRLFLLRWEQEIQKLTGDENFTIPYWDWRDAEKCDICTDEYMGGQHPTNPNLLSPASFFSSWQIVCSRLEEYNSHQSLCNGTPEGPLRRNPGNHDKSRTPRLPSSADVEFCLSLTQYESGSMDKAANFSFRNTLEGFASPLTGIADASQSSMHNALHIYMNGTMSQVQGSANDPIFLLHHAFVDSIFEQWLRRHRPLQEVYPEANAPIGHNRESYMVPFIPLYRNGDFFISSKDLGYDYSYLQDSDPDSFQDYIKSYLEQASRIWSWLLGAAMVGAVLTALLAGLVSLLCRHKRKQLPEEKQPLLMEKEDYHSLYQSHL
The test is described as follows: Inhibition of tyrosinase (unknown origin) using L-DOPA as substrate preincubated with substrate for 5 mins followed by enzyme addition and measured immediately by spectrophotometric method.
Consider `OC[C@H]1O[C@@H](Oc2ccc(O)cc2O)[C@H](O)[C@@H](O)[C@@H]1O`, for which the concentration for half-maximal inhibition (IC50) was 417000 nM.

The values above are taken from ChEMBL document CHEMBL4308889, “Resorcinol alkyl glucosides as potent tyrosinase inhibitors” (Bioorg Med Chem Lett, 2019).
